The values below come from PMC11025371, “Alcohols as inhibitors of ammonia oxidizing archaea and bacteria” (FEMS Microbiology Letters, 2023).

Series [1] concerns ‘Ca. N. franklandus’ C13. In words: Whole-cell activity assay with hydroxylamine as substrate (specificity of AMO inhibition). Type of series: cell-based, ‘Candidatus Nitrosocosmicus franklandus’ C13. The note with it: 200 µM hydroxylamine; for Rate of nitrite accumulation from hydroxylamine oxidation compared to the non-inhibited control: alcohol at its lowest concentration fully inhibitory to ammonia oxidation; for Specificity of inhibition to AMO (effect on hydroxylamine oxidation): fully inhibitory alcohol concentration. How it is done:
(§1) Nitrosomonas europaea and ‘Ca. N. franklandus’ C13 cells were harvested at mid-exponential phase (∼800 µM NO2^− accumulated) by filtration onto 0.22 µm pore-size membrane filter (PES, Merck Millipore). Cells were then washed and resuspended in FWM salts (i.e. FWM without added NH4Cl and other medium components as described above) buffered with 10 mM HEPES buffer (pH 7). Cells were incubated at 28°C for N. europaea and 37°C for ‘Ca. N. franklandus’ C13 for ∼1 h until endogenous respiration ceased.
(§2) Although these alcohols were added at concentrations above their solubility for the consistency of the experimental design, the limit of solubility was considered when evaluating the results. Reactions were initiated by addition of 500 µM NH4Cl or 200 µM NH2OH. Vials containing N. europaea and ‘Ca. Nitrosocosmicus franklandus’ C13 cells were incubated at 28°C and 37°C, respectively. The activity of cultures was followed by monitoring nitrite accumulation over 1 h, measured in 15 min intervals using Griess reagent in a 96-well plate format as previously described (Lehtovirta-Morley et al. [2014]). The final cell concentration in the activity assays was ∼10^7 cells ml^−1 for both N. europaea and ‘Ca. N. franklandus’ C13, which equate to ∼1.2 and 5.55 µg protein ml^−1, respectively. Cell counts were performed as previously described (Oudova-Rivera et al. [2023]). Protein concentrations were determined using a Pierce bicinchoninic acid (BCA) protein assay kit (Thermo Scientific) according to the manufacturer instructions. One-way ANOVA with LSD post-hoc tests were performed using SPSS statistics software version 27 (IBM).
(§3) Inhibition by alcohols was tested at a fixed substrate concentration of 500 µM NH4Cl or 200 µM hydroxylamine for both N. europaea and ‘Ca. N. franklandus’ C13. Ammonia and hydroxylamine concentrations were selected based on previously published Km values and activity assays (Suzuki et al. [1974], Martens-Habbena et al. [2009], Oudova-Rivera et al. [2023]). Fully inhibitory concentrations of alcohols were determined experimentally with a series of activity assays, gradually narrowing down the range of alcohol concentrations applied. Full inhibition was defined as a lack of sustained nitrite accumulation, where there was either no nitrite accumulation at all, or where a minor accumulation of nitrite was initially detected but ceased (potentially due to a delayed effect of the inhibitor).
(§4) Inhibition of ammonia oxidation was tested using whole-cell activity assays with the concentration of alcohols ranging from 2 to 100 mM and fixed substrate ammonia concentration of 500 µM NH4Cl. […] Because hydroxylamine, the product of ammonia oxidation, is a pathway intermediate downstream of AMO, any inhibitors specific to AMO should not interfere with hydroxylamine oxidation.

Series [2] concerns N. europaea. Nature of the series: Whole-cell activity assay, inhibition of ammonia oxidation (nitrite accumulation from 500 µM NH4Cl). Type of series: cell-based, Nitrosomonas europaea. The note with it: 28°C; for Lowest fully inhibitory concentration (I) for ammonia oxidation: full inhibition = lack of sustained nitrite accumulation; for IC50: nitrite accumulation over 1 h, read-out: Half-maximal inhibitory concentration (IC50) of ammonia oxidation. As for the experimental part: as §1
as §2, with “. Although” for “Although”
The reaction velocity of ammonia and hydroxylamine oxidation was determined by measuring the rate of nitrite accumulation over time (µM min^−1). The logarithm of the reaction velocity, calculated as a percentage of the non-inhibited control, was plotted against the inhibitor concentration resulting in a linear relationship (Figs. S1 and S2). The half-maximal inhibitory concentration (IC50) was calculated from the slope and y-axis intercept over the linear part of the curve following the formula: […]
as §3

For series [3], the system named is N. europaea. Nature of the series: Whole-cell activity assay with hydroxylamine as substrate (specificity of AMO inhibition). The format is cell-based, Nitrosomonas europaea. As to conditions: 200 µM hydroxylamine; for Rate of nitrite accumulation from hydroxylamine oxidation compared to the control: alcohol at its lowest concentration fully inhibitory to ammonia oxidation; for Specificity of inhibition to AMO (effect on hydroxylamine oxidation): fully inhibitory alcohol concentration. How it is done: as §1, §2, §3, §4

Series [4] concerns ‘Ca. N. franklandus’ C13. In words: Whole-cell activity assay, inhibition of ammonia oxidation (nitrite accumulation from 500 µM NH4Cl). Type of series: cell-based, ‘Candidatus Nitrosocosmicus franklandus’ C13. The note with it: for Lowest fully inhibitory concentration (I) for ammonia oxidation / IC50: 37°C; for Lowest fully inhibitory concentration (I) for ammonia oxidation: full inhibition = lack of sustained nitrite accumulation; for IC50: nitrite accumulation over 1 h, read-out: Half-maximal inhibitory concentration (IC50) of ammonia oxidation. How it is done:
as §1, §2
The reaction velocity of ammonia and hydroxylamine oxidation was determined by measuring the rate of nitrite accumulation over time (µM min^−1). […] The half-maximal inhibitory concentration (IC50) was calculated from the slope and y-axis intercept over the linear part of the curve following the formula: […]
as §3, §4

Series [5] relates to N. europaea. Set-up: method as in Hooper and Terry [1973]. As to conditions: ref Hooper and Terry [1973]; cited from earlier work.
Series [6] is described as follows: physchem. As to conditions: water.

In brackets after ≈: the same amount, converted by molar mass. Entries after “also recorded” stand apart in the source; their conditions may differ. Read-outs that look alike come from different tables or passages of the source. Marks after values point to notes of the source that are not given here.

Regarding `CCCCCCO` [Hexanol, 1-hexanol], the “Rate of nitrite accumulation from hydroxylamine oxidation compared to the non-inhibited control” value (“Rate … compared to the non-inhibited control” for short) in series [1] is 13% ± 0.9%. The “Lowest fully inhibitory concentration (I) for ammonia oxidation” value (shortened to “Lowest fully inhibitory concentration”) was 20 mM in series [2] and 15 mM in series [4]. In addition, the results for the IC50 in series [2] (Nitrosomonas europaea) and in series [4] were 2.2 mM and 2.4 mM, respectively. The “Rate of nitrite accumulation from hydroxylamine oxidation compared to the control” value (“Rate … compared to the control” below) in series [3] is 18% ± 5.6%.
As for `CCCO` [1-Propanol, 1-propanol], the “Concentration giving maximal inhibition” value in series [5] is 0.33 M. Also, in series [2], the “Lowest fully inhibitory concentration” value is recorded as 100 mM and the IC50 worked out at 13.6 mM. In addition, in series [4], the “Lowest fully inhibitory concentration” value is listed as 20 mM and the IC50 amounted to 6.2 mM.
As for `CCCCO` [Butanol, 1-butanol], the “Rate … compared to the non-inhibited control” value in series [1] is 55% ±2.3%. In series [2], the “Lowest fully inhibitory concentration” value is 100 mM and the IC50 stood at 7.6 mM. Also, in series [3], the “Rate … compared to the control” value is given as 83% ± 1.8%. In series [4], the “Lowest fully inhibitory concentration” value stood at 40 mM and the IC50 was 4 mM.
As for `CCCCCO` [Pentanol, 1-pentanol], the “Rate … compared to the non-inhibited control” value in series [1] was 53% ± 2.8%. In addition, the “Lowest fully inhibitory concentration” value in series [2] is reported as 100 mM; in series [4], 20 mM. Besides, the IC50 was found to be 5.3 mM in series [2] (Nitrosomonas europaea) and 3.6 mM in series [4]. Also, in series [3], the “Rate … compared to the control” value was 27% ± 2.6%.
Molecule `CCCCCCCO` [Heptanol, 1-heptanol] registered a solubility in series [6] of 17 mM (≈ 1980 µg/mL). Moreover, the “Rate … compared to the non-inhibited control” value in series [1] is recorded as 10% ± 0.5%. In addition, the “Lowest fully inhibitory concentration” value in series [2] and in series [4] was 17 mM throughout. Moreover, the IC50 in series [2] (Nitrosomonas europaea) stood at 4.5 mM; in series [4], 3.6 mM. For the same molecule, in series [3], the “Rate … compared to the control” value is reported as “no activity detected”.
In series [6], `CCCCCCCCO` [Octanol, 1-octanol] had a solubility of 2 mM (≈ 260 µg/mL). Also, the “Rate … compared to the non-inhibited control” value in series [1] is recorded as 33% ± 1.4%. Moreover, the “Lowest fully inhibitory concentration” value is 20** mM in series [2], 10** mM in series [4] and 10 mM in series [4] (listed as octanol). In series [3], the “Rate … compared to the control” value is “no activity detected”. The inhibition at 2000 µM in series [4] (2 mM octanol (limit of solubility)) came out at 39%.
As to `CC(C)O` [2-Propanol, 2-propanol], in series [5], the “Concentration giving maximal inhibition” value is listed as 0.13 M. Also, in series [2], the “Lowest fully inhibitory concentration” value was determined as 100 mM and the IC50 came out at 32.6 mM. Moreover, in series [4], the “Lowest fully inhibitory concentration” value is recorded as 40 mM and the IC50 came out at 26.8 mM.
`CCO` [Ethanol, ethanol]: the entries for the “Specificity of inhibition to AMO (effect on hydroxylamine oxidation)” value in series [1] and in series [3] were “did not interfere with hydroxylamine oxidation; also recorded: specific inhibitor; also recorded: specific inhibitors of the AMO” and “specific inhibitor; also recorded: specific inhibitors of the AMO”, respectively. Also, the figures for the “Lowest fully inhibitory concentration” value in series [2] and in series [4] were 90 mM and 80 mM, respectively. The figures for the IC50 in series [2] and in series [4] were 20.9 mM and 7.2 mM, respectively.
For `CO` [Methanol], the “Rate … compared to the non-inhibited control” value in series [1] is recorded as “not affected”. Also, the figures for the “Specificity of inhibition to AMO (effect on hydroxylamine oxidation)” value in series [1], in series [1] (listed as methanol) and in series [3] were “specific inhibitors of the AMO”, “did not interfere with hydroxylamine oxidation” and “specific inhibitors of the AMO”, respectively. In addition, the entries for the “Lowest fully inhibitory concentration” value in series [2] and in series [4] were 10 mM and 8 mM, respectively. For the same molecule, the IC50 in series [2] turned out to be 0.31 mM; in series [4], 0.19 mM.

Broadly, the solubility is how much of the substance goes into solution per volume. A low value points to a poorly soluble substance. A word on the inhibition: it is the change of the read-out against control, counted positive when it falls. A low value points to a response near the control.
